One compound from patent publication US10980776B2, “Synergistic pharmaceutical combination for the treatment of squamous cell carcinoma of head and neck” (Piramal Enterprises Limited, priority 2011, dated 2021) can be followed below.

For orientation: IC30 means the concentration needed for an effect of 30%. As usually defined, the IC70 is the point of the concentration-response curve where the effect stands at 70%. A word on the IC50: it is the point on the concentration scale where inhibition reaches its midpoint. By IC90 is commonly meant the concentration at which the effect reaches the 90% level. Lower therefore signals greater potency.

Assay [1] concerns FADU cells. The assay is described as follows: CCK-8 cytotoxicity assay, determination of inhibitory concentrations in FADU cells. The assay is classed as cell-based, human. Conditions: 72 hr. As for the experimental part: (§1) Logarithmically growing cells were plated at a density of 3×10^3 cells/well and allowed to recover overnight. […] After 72 hours, cell toxicity was determined by CCK-8 (Cell Counting Kit-8) reagent (Dojindo Molecular Technologies, Japan); WST-8 (2-(2-methoxy-4-nitrophenyl)-3-(4-nitrophenyl)-5-(2, 4-disulfophenyl)]-2H-tetrazolium, monosodium salt) assay. In accordance with the manufacturer's instructions, 5 μl/well CCK-8 reagent was added and plates were incubated for 2 hours. The toxicity was determined by measuring the absorbance on Tecan Sapphire multi-fluorescence micro-plate reader (Tecan, Germany, GmbH) at a wavelength of 450 nm corrected to 650 nm and normalized to controls.
(§2) CCK-8 allows convenient assays using Dojindo's tetrazolium salt, WST [8[(2-(2-methoxy-4-nitrophenyl)-3-(4-nitrophenyl)-5-(2,4-disulfophenyl)-2H-tetrazolium, monosodium salt], which produces a water-soluble formazan dye upon bioreduction in the presence of an electron carrier, 1-Methoxy PMS. CCK-8 solution is added directly to the cells; no pre-mixing of components is required. CCK-8 is a sensitive nonradioactive colorimetric assay for determining the number of viable cells in cell proliferation and cytotoxicity assays. WST-8 is bio-reduced by cellular dehydrogenases to an orange formazan product that is soluble in tissue culture medium. The amount of formazan produced is directly proportional to the number of living cells. The detection sensitivity of cell proliferation assays using WST-8 is higher than assays using the other tetrazolium salts such as MIT, XTT, MTS or WST-1. Optical Density was determined at measurement wavelength of 450 nm and reference wave length of 630 nm.
(§3) The cells were seeded at a density of 3000 cells/well, in a 200 μL in tissue culture grade 96 well plate and were allowed to recover for 24 hrs in a humidified 5%±0.2 CO2 incubator at 37° C.±0.5° C. […] The final DMSO concentration was 0.5% in wells. Plates were incubated for 48 hrs in humidified 5%±0.2 CO2 incubator at 37±0.5° C. After 48 hrs the plates were removed from CO2 incubator and 5 μL of Cell counting Kit (CCK-8) per well was added. The same plate was kept at 37° C. for 3 hrs, and allowed to come to room temperature. The absorbance at a wavelength of 450 nm was read on Tecan safire reader. The percent cytotoxicity was calculated using the following formula.
(Formazan colour is commonly taken as a measure of viable cells.)

Assay [2] deals with SCC-25 cells. The experiment in a line: CCK-8 cytotoxicity assay, determination of inhibitory concentrations in SCC-25 cells. The assay is classed as cell-based. The note with it: SCC-25 cells, 72 hr. On the procedure:
as §1, §2, §3

For assay [3], the system named is FADU cells. The experiment in a line: cells. The note with it: Homo sapiens; for cytotoxicity at 4.1 µM: single agent at IC50 (compound B 4.1 μM); for cytotoxicity at 9.6 µM: single agent at IC70 (compound B 9.6 μM).
Assay [4] deals with SCC-25 cells. The assay is described as follows: Combination studies (single and sequential combination dosing), % cytotoxicity in SCC-25 cells. The note with it: Homo sapiens, SCC-25, SCC-25; for cytotoxicity at 1.1 µM: single agent at IC50 (compound B 1.1 μM). On the procedure: as §1, §2
Sorafenib in the following dose of final concentration 0.18 μM and compound A in the following doses of final concentration 0.1 μM, 0.4 μM and 4.1 μM were analyzed in single dose and in all possible combinations of the dose range for the two anticancer agents mentioned above. The sequence of treatment is as follows; the SCC-25 cells were treated with sorafenib for 0 to 24 hrs. At the end of 24 hrs the cells were washed two times with plain MEM (minimum essential media) medium. Fresh MEM with 10% serum (200 μL/well) was added, followed by treatment with compound A from 24 hrs to 96 hrs.
Sorafenib in the following dose of final concentration 0.18 μM and compound B in the following doses of final concentration 0.2 μM, 1.1 μM and 4.8 μM were analyzed in single dose and in all possible combinations of the dose range for the two anticancer agents mentioned above. The sequence of treatment is as follows; the SCC-25 cells were treated with sorafenib for 0 to 24 hrs. At the end of 24 hrs the cells were washed two times with plain MEM medium. Fresh MEM with 10% serum (200 μL/well) was added, followed by treatment with compound B from 24 hrs to 96 hrs.
Lapatinib in the following dose of final concentration 0.2 μM and compound A in the following doses of final concentration 0.2 μM, 0.5 μM and 3.3 μM were analyzed in single dose and in all possible combinations of the dose range for the two drugs mentioned above. The sequence of treatment is as follows; the SCC-25 cells were treated with lapatinib for 0 to 24 hrs. At the end of 24 hrs the cells were washed two times with plain MEM medium. Fresh MEM with 10% serum (200 μL/well) was added, followed by treatment with compound A from 24 hrs to 96 hrs.
Lapatinib in the following dose of final concentration 0.2 μM and compound B in the following doses of final concentration 0.2 μM, 1.1 μM and 4.8 μM were analyzed in single dose and in all possible combinations of the dose range for the two drugs mentioned above. The sequence of treatment is as follows; the SCC-25 cells were treated with lapatinib for 0 to 24 hrs. At the end of 24 hrs the cells were washed two times with plain MEM medium. Fresh MEM with 10% serum (200 μL/well) was added, followed by treatment with compound A from 24 hrs to 96 hrs.

Assay [5] has as its system Detroit-562 cells. The assay is described as follows: CCK-8 cytotoxicity assay, determination of inhibitory concentrations in Detroit-562 cells. The assay is classed as cell-based. The note with it: 72 hr. As for the experimental part:
as §1, §2, §3

Regarding `CN1CC[C@@H](c2c(O)cc(O)c3c(=O)cc(-c4ccc(C(F)(F)F)cc4Cl)oc23)[C@@H]1CO.Cl` [Compound B, (+)-trans-2-(2-chloro-4-trifluoromethyl-phenyl)-5,7-dihydroxy-8-(2-hydroxymethyl-1-methyl-pyrrolidin-3-yl)-chromen-4-one hydrochloride], the IC30 in assay [1] was 2.3 µM; in assay [2] it was 0.2 µM; in assay [5] it was 2.7 µM. Moreover, the IC70 in assay [1] was found to be 9.6 µM; in assay [2] it was 4.8 µM; in assay [5] it was 25.2 µM. Moreover, the IC50 stood at 4.1 µM in assay [1] (Homo sapiens); 1100 nM in assay [2] (Homo sapiens, read-out: IC50); 14.1 µM in assay [5] (Homo sapiens). The IC90 came out at 31.4 µM in assay [1] (Homo sapiens), 41.8 µM in assay [2] (Homo sapiens) and 44.6 µM in assay [5] (Homo sapiens). In addition, the cytotoxicity at 2.3 µM in assay [3] (single agent at IC30 (lapatinib 0.8 μM; compound B 2.3 μM)) is 21%; in assay [3] (single agent at IC30 (sorafenib 3.9 μM; compound B 2.3 μM)), 14%. Moreover, the cytotoxicity at 4.1 µM in assay [3] (lapatinib study) came to 26%; in assay [3] (sorafenib study), 20%. Further, the cytotoxicity at 9.6 µM was 33% in assay [3] (lapatinib study) and 27% in assay [3] (sorafenib study). In addition, the cytotoxicity at 0.2 µM in assay [4] (single agent at IC30 (lapatinib 0.2 μM; compound B 0.2 μM)) and in assay [4] (single agent at IC30 (sorafenib 0.18 μM; compound B 0.2 μM)) was 16% each time. Further, the cytotoxicity at 1.1 µM in assay [4] (lapatinib study) and in assay [4] (sorafenib study) was 19% each time.
